This assay deals with MAPK14 (human) (UniProt Q16539). Put plainly: Assesment of MAPK14 Kinase Activity.

Structures are written as SMILES. pEC50: −log10 of the molar value.

Sequence of MAPK14 (human) (Q16539 whole entry, looked up): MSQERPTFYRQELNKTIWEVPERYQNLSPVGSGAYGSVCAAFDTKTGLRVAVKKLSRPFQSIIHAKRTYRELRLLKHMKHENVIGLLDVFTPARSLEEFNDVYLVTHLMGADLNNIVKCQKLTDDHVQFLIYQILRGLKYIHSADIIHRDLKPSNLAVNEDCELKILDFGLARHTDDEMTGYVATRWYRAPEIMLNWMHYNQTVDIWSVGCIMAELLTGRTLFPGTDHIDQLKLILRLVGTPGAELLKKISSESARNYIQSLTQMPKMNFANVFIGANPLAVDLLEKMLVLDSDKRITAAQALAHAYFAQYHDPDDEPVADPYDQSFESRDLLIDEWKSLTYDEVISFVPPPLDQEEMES

`CC(C)(F)Cn1ncc2cc(Oc3ccc(F)cc3F)c(C(=O)ON3C(=O)CCC3=O)cc21` gave a negative-log EC50 (pEC50) not below 5.00.
To `CC(C)Cn1ncc2cc(Oc3ccc(F)cc3F)c(C(=O)N[C@H]3CCNC3=O)cc21` belongs not below 5.00; to `CC(C)(F)Cn1ncc2cc(Oc3ccc(F)cc3F)c(C(=O)N[C@H]3CCCNC3=O)cc21`, not below 5.00; to `CC(C)Cn1ncc2cc(Oc3ccc(F)cc3F)c(C(=O)N[C@H]3CCCCNC3=O)cc21`, not below 5.00.
To `CC(C)Cn1ncc2cc(Oc3ccc(F)cc3F)c(C(=O)N[C@H]3CCN(CCO)C3=O)cc21` belongs not below 5.00; to `CC(C)(O)Cn1ncc2cc(Oc3ccc(F)cc3F)c(C(=O)N[C@H]3CCNC3=O)cc21`, not below 5.00; to `CC(C)Cn1ncc2cc(Oc3ccc(F)cc3F)c(C(=O)N[C@H]3CCCNC3=O)cc21`, not below 5.00.
To `CC(C)Cn1ncc2cc(Oc3ccc(F)cc3F)c(C(=O)N[C@H]3CCN(C)C3=O)cc21` belongs not below 5.00; to `CC(C)(F)Cn1ncc2cc(Oc3ccc(F)cc3F)c(C(=O)N[C@H]3CCNC3=O)cc21`, not below 5.00; to `CC(C)Cn1ncc2cc(Oc3ccc(F)cc3F)c(C(=O)N[C@H]3CCCN(CCO)C3=O)cc21`, not below 5.00.
Take `CC(C)Cn1ncc2cc(Oc3ccc(F)cc3F)c(C(=O)N[C@H]3CCCN(C)C3=O)cc21`: the pEC50 was not below 5.00.
Then `CC(C)(F)Cn1ncc2cc(Oc3ccc(F)cc3F)c(C(=O)N[C@H]3CCCCNC3=O)cc21`, with not below 5.00; and `CC(C)Cn1ncc2cc(Oc3ccc(F)cc3F)c(C(=O)Nc3ccc[nH]c3=O)cc21`, with not below 5.00; and `CC(C)Cn1ncc2cc(Oc3ccc(F)cc3F)c(C(=O)N[C@H]3CCCCN(CCO)C3=O)cc21`, with not below 5.00.
Then `CC(C)Cn1ncc2cc(Oc3ccc(F)cc3F)c(C(=O)N[C@H]3CCCCN(C)C3=O)cc21`, with not below 5.00.

The values above are taken from the Kinase Knowledgebase extract (Sharma et al. 2016).
